From patent US20130203718A1 (priority 2010, published 2013)

Biological target: T1, hAR (Homo sapiens, UniProt P10275)
T1 construct: expressed in transfected cells; host or cells: HEK 293T
T1 sequence (P10275 1-920): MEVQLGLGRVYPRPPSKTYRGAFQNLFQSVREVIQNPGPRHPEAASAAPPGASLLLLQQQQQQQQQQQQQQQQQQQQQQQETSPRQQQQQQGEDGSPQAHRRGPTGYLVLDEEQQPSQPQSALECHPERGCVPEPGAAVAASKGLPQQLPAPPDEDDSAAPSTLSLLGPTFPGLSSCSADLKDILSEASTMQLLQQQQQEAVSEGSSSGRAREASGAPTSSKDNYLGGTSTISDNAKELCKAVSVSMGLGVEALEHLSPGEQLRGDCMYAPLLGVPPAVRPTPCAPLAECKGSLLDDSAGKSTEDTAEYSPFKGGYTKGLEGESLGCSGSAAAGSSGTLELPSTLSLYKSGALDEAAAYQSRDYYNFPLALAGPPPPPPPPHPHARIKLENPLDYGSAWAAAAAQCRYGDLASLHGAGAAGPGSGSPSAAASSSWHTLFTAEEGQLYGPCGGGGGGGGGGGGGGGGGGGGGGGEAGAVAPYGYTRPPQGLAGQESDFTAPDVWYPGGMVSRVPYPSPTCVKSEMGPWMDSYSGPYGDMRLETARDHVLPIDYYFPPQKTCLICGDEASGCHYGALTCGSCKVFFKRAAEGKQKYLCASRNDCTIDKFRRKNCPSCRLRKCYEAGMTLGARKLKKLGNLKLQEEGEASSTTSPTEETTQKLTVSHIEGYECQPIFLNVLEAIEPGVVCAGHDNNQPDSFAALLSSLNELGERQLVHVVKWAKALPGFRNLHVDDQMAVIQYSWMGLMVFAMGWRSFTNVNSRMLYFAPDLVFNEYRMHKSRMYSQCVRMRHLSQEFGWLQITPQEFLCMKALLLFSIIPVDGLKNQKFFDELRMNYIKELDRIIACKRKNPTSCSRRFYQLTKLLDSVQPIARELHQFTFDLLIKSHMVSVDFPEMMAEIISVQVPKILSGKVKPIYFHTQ
Test: APRn selectivity: transactivation in HEK293T cells transiently expressing hAR
Type: cell-based
Settings: for agonist efficacy towards hAR (in words): HEK293T, FIG. 11; for selectivity for hPR vs hAR, hGR and hMR (in words): conclusion from hAR, hGR and hMR transactivation assays
Protocol: Measurement of the APRn Selectivity in HEK 293T.
The HEK-293T cells were cultured and transfected according to the method described above for the PR transactivation assays. The expression vectors pcDNA-hAR, kindly provided by G. A. Coetzee, pchGR (Hellal-Levy, C et al. FEBS Lett 1999, 464, 9), and pchMR (Fagart, J. et al. EMBO J. 1998, 17, 3317) were used for studying the ability of APRn to activate or inactivate the AR, GR and MR, respectively. For each transfection assays, 2 μg of the expression vector was used together with 7 μg of the GRE2-Luc reporter vector. Dihydrotestosterone (DHT), dexamethasone (Dex) and Aldosterone (Aldo) were selected as AR, GR and MR ligands, respectively. They were used at the concentration of 10^−9 M. The APRn agonist and antagonist efficacy for AR, GR and MR were measured as described above for PR. The results are the mean±SEM of three independent experiments.
Transfection assays were performed in HEK 293T cells by using expression vectors for the hAR, hGR and hMR and the GRE2-Luc reporter used for the PR transactivation assays.

Row | Structure (SMILES) | agonist efficacy towards hAR (in words) | selectivity for hPR vs hAR, hGR and hMR (in words)
1 | CC(=O)[C@H]1CC[C@H]2[C@@H]3CC=C4C[C@@H](F)CC[C@]4(C)[C@H]3CC[C@]12C [APR-16, 3β-Fluoropregn-5-en-20-one] | low agonist efficacy | selective hPR antagonists
2 | CC#C[C@]1(O)CCC2C3CC[C@H]4CCCC[C@]4(C)C3CC[C@@]21C (stereo partly drawn) [APR-42, 17α-(1-Propynyl)-5α-androstan-17β-ol] | low agonist efficacy | selective hPR antagonists
3 | C[C@]12CCC3C(CC=C4C[C@@H](F)CC[C@@H]43)C1CCC2=O (stereo partly drawn) [APR-47, 3β-Fluoro-19-nor-androst-5-en-17-one] | low agonist efficacy | selective hPR antagonists
